Assay results from patent publication US10201507B2, “Modulators of intracellular chloride concentration for treating fragile X syndrome” (NEUROCHLORE, priority 2012, dated 2019).
“Also recorded” adds a separate entry of the source.

What was measured:
hippocampal slices = experiment: Extracellular field potentials / spike frequency in hippocampal slices at P15 on isoguvacine; assay type: cell-based, mouse; settings: for normalized spike frequency: P15, isoguvacine (10 μM)
Description: Recording were made in the hippocampal slices using tungsten wire electrodes (diameter: 50 μm, California Fine Wire, Grover Beach, Calif.) and a low-noise multichannel DAM-8A amplifiers (WPI, GB; […]; gain: ×1000). The signals were digitized using an analogue-to-digital converter (Digidata 1440A, Axon Instruments, USA). pCLAMP 10.1, Clampfit 10.1 (Axon Instruments, USA), MiniAnalysis 6.03 (Synaptosoft, Decatur, Calif.) and Origin 7.5 (Microcal Software, USA) programs were used for the acquisition and analysis of the synaptic activities. Sampling interval per signal was 100 microseconds (10 kHz).
To test whether depolarizing actions of GABA were associated with neuronal excitation, the effect of the GABAA receptor agonist isoguvacine was tested. […] To test whether maternal treatment with bumetanide before delivery switches the action of GABA from excitatory to inhibitory in offsprings at P15, pregnant females were treated orally 1 day before delivery with bumetanide (2-2.5 mg/kg in drinking water) and juvenile offspring neurons recorded at P15. […] Therefore, excitatory actions of GABA during delivery produce long term deleterious effects on electrophysiological parameters of FXS juvenile neurons. In FXS mice, GABAergic inputs are excitatory and contribute to hyperexcitability of the network. Bumetanide decreases [Cl^−]i and consequently reduces contribution of excitatory GABAergic inputs in the overall network activity.

CA3 pyramidal cells = experiment: Single GABAA channel recordings of driving force of GABA (DFGABA) in hippocampal slices, drug applied to slice; assay type: cell-based, mouse; settings: FXS neurons at P0 (birth); oxytocin 1 μM
Description: Mice lacking Fmr1 (referred to as Fmr1^−/−) were bred in our animal facility. […] For all experiments, Fmr1^−/− mice were used with wild-type littermates as a control group. The offspring were used for experiments at E18, P0, P2, P4, P7, P9, P15 and P30. Experiments were carried out on offspring of either sex and in a blind manner at E18 and P0.
Experiments were performed on fetuses and neonatal wild type and Fragile X mice from the embryonic day […] to the postnatal day P38 (term is E21). All of the research was performed in compliance with the national guidelines on human care and use of laboratory animals and approved by INSERM.
Hippocampal slices (300-500 μm thick) were prepared using a Microm tissue slicer (International GmbH, Germany) as described previously (Tyzio et al., 2006, 2008). Slices were kept in oxygenated (95% O2/5% CO2) artificial cerebrospinal fluid (ACSF) of the following composition (in mM): NaCl 126, KCl 3.5, CaCl2 2.0, MgCl2 1.3, NaHCO3 25, NaH2PO4 1.2 and glucose 11 (pH 7.4) at room temperature (20-22° C.) at least 1 hour before use.
For recordings, slices were placed into a conventional fully submerged chamber superfused with ACSF at a rate of 2-3 ml/min at room temperature. Patch clamp recordings from visually identified CA3 pyramidal cells in cell-attached configuration were performed using EPC-10 amplifier (HEKA Elektronik Dr. Schulze GmbH, Lambrecht/Pfalz, Germany). Patch pipette solution for recordings of single GABAA channels contained (in mM): NaCl 120, KCl 5, TEA-Cl 20, 4-aminopyridine 5, CaCl2 0.1, MgCl2 10, glucose 10, Hepes-NaOH 10 buffered to pH 7.2-7.3 and GABA 2 μM. Analysis of currents through single channels and current-voltage relationships were performed using Clampfit 9.2 (Axon Instruments, Union City, Calif.). Recordings were digitized (10 kHz) online with Digidata-1200 interface card (Axon Instruments, Union City, Calif.) and analyzed offline with Axon package, MiniAnalysis (S (Synaptsoft, Decatur, Ga.), and Origin (Microcal Software, Northampton, Mass.). […]

Structure (SMILES)	normalized spike frequency (hippocampal slices; FXS mice) [%]	normalized spike frequency (hippocampal slices; WT mice) [%]	Effect on field potential recordings (in words) (hippocampal slices; naive neurons, P15, isoguvacine 2 μM)	Effect on DFGABA (in words) (CA3 pyramidal cells)
O=C(O)C1=CCNCC1 [isoguvacine]	165.8±13.5	67.9±6.1	inhibited or did not affect field potential recordings	
CC[C@H](C)[C@@H]1NC(=O)[C@H](Cc2ccc(O)cc2)NC(=O)[C@@H](N)CSSC[C@@H](C(=O)N2CCC[C@H]2C(=O)N[C@@H](CC(C)C)C(=O)NCC(N)=O)NC(=O)[C@H](CC(N)=O)NC(=O)[C@H](CCC(N)=O)NC1=O [oxytocin]				shift it to hyperpolarization; also recorded: shifted DFGABA
